Marks after values point to notes of the source that are not given here.
Test system: rabbit eyes (aqueous humor protein concentration)
Experiment: Rabbit eye anterior chamber puncture test
Type: in vivo
Procedure: Thirty-six rabbits without ocular abnormalities were taken and randomly divided into six groups, with six rabbits in each group. The groups are respectively saline group, medium control group, positive control group of diclofenac sodium, 0.025%, 0.05% and 0.1% meloxicam eye drops groups. Then 0.05 mL drug solution was dropped into the rabbit eyes for experiment. The eyes were forced to be closed for 10 seconds; 45 minutes later, under local anesthesia with 0.2 mL of 1% tetracaine drops, puncturing was performed with 41/2 needle from the edge of the limbus to take 0.2 mL of primary aqueous humor; 90 minutes later, puncturing was performed again to take the secondary aqueous humor. Those two batches of aqueous humor were diluted 2-fold and 50-fold respectively. Then 0.05 mL of distilled water, aqueous humor dilution and protein standard solution were taken, 3 mL Coomassie brilliant blue staining solution was added thereto respectively, after 10 minutes of reaction, their absorbance values at 595 nm were measured, and the protein content was calculated according to the following formula: [formula]

For `O=C(O)Cc1ccccc1Nc1c(Cl)cccc1Cl` [Diclofenac sodium], the “Protein concentration in aqueous humor, Primary” value (0.05 ml/eye, puncture 45 minutes after dosing, x ± s, n 6) was 0.52 ± 0.19 mg/mL, the “Protein concentration in aqueous humor, Secondary” value (0.05 ml/eye, second puncture 90 minutes later, x ± s, n 6) was 18.05 ± 3.01**^ΔΔ mg/ml and the “inhibition of the increase in aqueous humor protein concentration caused by puncture of anterior chamber” value (vs saline and medium control groups) was “significantly inhibit”.
